Experiments:
[1] = system: Bacillus subtilis NCTC 9372; assay: Nitroreductase detection on Columbia agar, colonies read under UV; type: cell-based; design: key: − = no fluorescence detected; +/− = weak fluorescence; + = medium fluorescence; ++ = strong fluorescence; conditions: 100 mg/l in Columbia agar, 24 h 37° C., UV 360-365 nm
Experimental: (§1) A mass of 40 mg of each substrate was dissolved in 4 ml of dimethylformamide (DMF). This solution was entirely taken up in 400 ml of Columbia agar autoclaved beforehand and kept molten at 50° C. The final concentration for each substrate was 100 mg/l.
(§2) Each of the media was distributed into Petri dishes 90 mm in diameter, in a proportion of 20 ml per dish.
(§3) 18 microorganism strains derived from collections and belonging to various species of bacteria and of yeasts were inoculated onto these media by semi-quantitative isolation of 10 μl of a suspension at 0.5 McFarland diluted to 1/20. The media were incubated for 24 hours at 37° C., then the colonies formed were examined visually under UV illumination at 360-365 nm.

[2] = system: Candida albicans ATCC 90028; assay: as above; type: cell-based; design: key: − = no fluorescence detected; +/− = weak fluorescence; + = medium fluorescence; ++ = strong fluorescence; conditions: 100 mg/l in Columbia agar, 24 h 37° C., UV 360-365 nm
Experimental: as §1, §2, §3

[3] = system: Enterobacter cloacae NCTC 11936; assay: as above; type: cell-based; design: key: − = no fluorescence detected; +/− = weak fluorescence; + = medium fluorescence; ++ = strong fluorescence; conditions: 100 mg/l in Columbia agar, 24 h 37° C., UV 360-365 nm
Experimental: as §1, §2, §3

[4] = system: Enterococcus faecalis NCTC 775; assay: as above; type: cell-based; design: key: − = no fluorescence detected; +/− = weak fluorescence; + = medium fluorescence; ++ = strong fluorescence; conditions: 100 mg/l in Columbia agar, 24 h 37° C., UV 360-365 nm
Experimental: as §1, §2, §3

[5] = system: Escherichia coli NCTC 10418; assay: as above; type: cell-based; design: key: − = no fluorescence detected; +/− = weak fluorescence; + = medium fluorescence; ++ = strong fluorescence; conditions: 100 mg/l in Columbia agar, 24 h 37° C., UV 360-365 nm
Experimental: as §1, §2, §3

[6] = system: Listeria monocytogenes NCTC 11994; assay: as above; type: cell-based; design: key: − = no fluorescence detected; +/− = weak fluorescence; + = medium fluorescence; ++ = strong fluorescence; conditions: 100 mg/l in Columbia agar, 24 h 37° C., UV 360-365 nm
Experimental: as §1, §2, §3

[7] = system: Pseudomonas aeruginosa NCTC 10662; assay: as above; type: cell-based; design: key: − = no fluorescence detected; +/− = weak fluorescence; + = medium fluorescence; ++ = strong fluorescence; conditions: 100 mg/l in Columbia agar, 24 h 37° C., UV 360-365 nm
Experimental: as §1, §2, §3

[8] = system: Serratia marcescens NCTC 10211; assay: as above; type: cell-based; design: key: − = no fluorescence detected; +/− = weak fluorescence; + = medium fluorescence; ++ = strong fluorescence; conditions: 100 mg/l in Columbia agar, 24 h 37° C., UV 360-365 nm
Experimental: as §1, §2, §3

[9] = system: Staphylococcus aureus NCTC 6571; assay: as above; type: cell-based; design: key: − = no fluorescence detected; +/− = weak fluorescence; + = medium fluorescence; ++ = strong fluorescence; conditions: 100 mg/l in Columbia agar, 24 h 37° C., UV 360-365 nm
Experimental: as §1, §2, §3

[10] = system: Staphylococcus epidermidis NCTC 11047; assay: as above; type: cell-based; design: key: − = no fluorescence detected; +/− = weak fluorescence; + = medium fluorescence; ++ = strong fluorescence; conditions: 100 mg/l in Columbia agar, 24 h 37° C., UV 360-365 nm
Experimental: as §1, §2, §3

[11] = system: Streptococcus pyogenes NCTC 8306; assay: as above; type: cell-based; design: key: − = no fluorescence detected; +/− = weak fluorescence; + = medium fluorescence; ++ = strong fluorescence; conditions: 100 mg/l in Columbia agar, 24 h 37° C., UV 360-365 nm
Experimental: as §1, §2, §3

[12] = system: Yersinia enterocolitica NCTC 11176; assay: as above; type: cell-based; design: key: − = no fluorescence detected; +/− = weak fluorescence; + = medium fluorescence; ++ = strong fluorescence; conditions: 100 mg/l in Columbia agar, 24 h 37° C., UV 360-365 nm
Experimental: as §1, §2, §3

[13] = system: Acinetobacter baumanii ATCC 19606; assay: as above; type: cell-based; design: key to Intensity of fluorescence, Acinetobacter baumanii ATCC 19606 / Intensity of the fluorescence, Acinetobacter baumanii ATCC 19606: − = no fluorescence detected; +/− = weak fluorescence; + = medium fluorescence; ++ = strong fluorescence; conditions: for Intensity of fluorescence, Acinetobacter baumanii ATCC 19606: 100 mg/l in Columbia agar, 24 h 37° C., UV 360-365 nm
Experimental: as §1, §2, §3

[14] = system: Salmonella typhimurium NCTC 74; assay: as above; type: cell-based; design: key to Intensity of fluorescence, Salmonella typhimurium NCTC 74 / F: fluorescence (intensity), Salmonella typhimurium NCTC 74 / Intensity of the fluorescence, Salmonella typhimurium NCTC 74: − = no fluorescence detected; +/− = weak fluorescence; + = medium fluorescence; ++ = strong fluorescence; conditions: for Intensity of fluorescence, Salmonella typhimurium NCTC 74: 100 mg/l in Columbia agar, 24 h 37° C., UV 360-365 nm; for Salmonella typhimurium result with the substrate: table 2
Experimental: as §1, §2, §3

[15] = system: Morganella morganii 462403 (wild); assay: as above; type: cell-based; design: key to Intensity of fluorescence, Morganella morganii 462403 / F: fluorescence (intensity), Morganella morganii 462403 (wild) / Intensity of the fluorescence, Morganella morganii 462403 (wild): − = no fluorescence detected; +/− = weak fluorescence; + = medium fluorescence; ++ = strong fluorescence; conditions: for Intensity of fluorescence, Morganella morganii 462403: 100 mg/l in Columbia agar, 24 h 37° C., UV 360-365 nm
Experimental: as §1, §2, §3

[16] = system: MRSA NCTC 11939; assay: as above; type: cell-based, Staphylococcus aureus; design: key: − = no fluorescence detected; +/− = weak fluorescence; + = medium fluorescence; ++ = strong fluorescence; conditions: 100 mg/l in Columbia agar, 24 h 37° C., UV 360-365 nm
Experimental: as §1, §2, §3

[17] = system: Candida glabrata NCPF 3943; assay: as above; type: cell-based; design: key to Intensity of fluorescence, Candida glabrata NCPF3943 / F: fluorescence (intensity), Candida glabrata NCPF 3943 / Intensity of the fluorescence, Candida glabrata NCPF 3943: − = no fluorescence detected; +/− = weak fluorescence; + = medium fluorescence; ++ = strong fluorescence; conditions: 100 mg/l in Columbia agar, 24 h 37° C., UV 360-365 nm
Experimental: as §1, §2, §3

[18] = system: S. aureus (including MRSA) 10 strains; assay: Detection of various strains of S. aureus in the presence of substrates; type: cell-based, Staphylococcus aureus; conditions: for No. of strains detected, S. aureus (including MRSA): 10 strains
[19] = system: S. epidermidis 2 strains; assay: as above; type: cell-based
Experimental: as §1, §2
18 microorganism strains derived from collections and belonging to various species of bacteria and of yeasts were inoculated onto these media by semi-quantitative isolation of 10 μl of a suspension at 0.5 McFarland diluted to 1/20. […]

[20] = system: Staph spp 12 strains; assay: as above; type: cell-based
[21] = system: Enterococcus 6 strains; assay: as above; type: cell-based

Structure (SMILES)	Intensity of fluorescence, Bacillus subtilis NCTC 9372 [1]	Intensity of fluorescence, Candida albicans ATCC 90028 [2]	Intensity of fluorescence, Enterobacter cloacae NCTC 11936 [3]	Intensity of fluorescence, Enterococcus faecalis NCTC 775 [4]	Intensity of fluorescence, Escherichia coli NCTC 10418 [5]	Intensity of fluorescence, Listeria monocytogenes NCTC 11994 [6]	Intensity of fluorescence, Pseudomonas aeruginosa NCTC 10662 [7]	Intensity of fluorescence, Serratia marcescens NCTC 10211 [8]	Intensity of fluorescence, Staphylococcus aureus NCTC 6571 [9]	Intensity of fluorescence, Staphylococcus epidermidis NCTC 11047 [10]	Intensity of fluorescence, Streptococcus pyogenes NCTC 8306 [11]	Distinguishing or identifying Staphylococcus aureus strains, in particular MRSA, from most of the other Gram-positive bacterial strains [18]	No. of strains detected, S. aureus (including MRSA) ([18]; 24 h)	No. of strains detected, S. aureus (including MRSA) ([18]; 48 h)	No. of strains detected, S. epidermidis ([19]; 24 h)	No. of strains detected, S. epidermidis ([19]; 48 h)	No. of strains detected, Staph spp ([20]; 24 h)	No. of strains detected, Staph spp ([20]; 48 h)	No. of strains detected, Enterococcus ([21]; 24 h)	No. of strains detected, Enterococcus ([21]; 48 h)	further results
O=[N+]([O-])c1ccccc1-c1nc2cc(Cl)ccc2o1 [Substrate 2]	−	−	+	−	+^1	−	−	+	+	−	−	make it possible to distinguish or identify the Staphylococcus aureus strains	10	10	0	2	12	12	0	1	Intensity of fluorescence, Yersinia enterocolitica NCTC 11176 [12]: +/−; Intensity of fluorescence, Acinetobacter baumanii ATCC 19606 [13]: +/−; Distinguishing Pseudomonas aeruginosa from Acinetobacter baumanii ([13]; table 2): make it possible to distinguish Pseudomonas aeruginosa from Acinetobacter baumanii; Intensity of fluorescence, Salmonella typhimurium NCTC 74 [14]: −; Salmonella typhimurium result with the substrate [14]: negative; Intensity of fluorescence, Morganella morganii 462403 [15]: +/−; Intensity of fluorescence, Staphylococcus aureus NCTC 11939 [16]: +; Intensity of fluorescence, Candida glabrata NCPF3943 [17]: −
Cc1ccc2oc(-c3ccccc3[N+](=O)[O-])nc2c1 [Substrate 3]												make it possible to distinguish or identify the Staphylococcus aureus strains	10	10	0	2	12	12	0	1	
O=[N+]([O-])c1ccc(Cl)cc1-c1nc2ccccc2o1 [Substrate 4]												make it possible to distinguish or identify the Staphylococcus aureus strains	10	10	0	2	12	12	0	1	
CN1CCN(c2ccc([N+](=O)[O-])c(-c3nc4ccccc4o3)c2)CC1 [Substrate 8]												make it possible to distinguish or identify the Staphylococcus aureus strains	10	10	0	2	12	12	0	1	
O=[N+]([O-])c1ccccc1-c1nc2ccccc2n1CCc1ccccc1 [Substrate 12]	−	−	−	−	−	−	−	−	−	−	−										Intensity of fluorescence, Yersinia enterocolitica NCTC 11176 [12]: −; Intensity of fluorescence, Acinetobacter baumanii ATCC 19606 [13]: −; Intensity of fluorescence, Salmonella typhimurium NCTC 74 [14]: −; Salmonella typhimurium result with the substrate [14]: negative; Intensity of fluorescence, Morganella morganii 462403 [15]: +/−; Specificity of the substrate ([15]; table 2): specific for Morganella morganii; Intensity of fluorescence, Staphylococcus aureus NCTC 11939 [16]: −; Intensity of fluorescence, Candida glabrata NCPF3943 [17]: −
O=[N+]([O-])c1ccc(Cl)cc1-c1nc2ccccc2s1 [Substrate 21]												make it possible to distinguish or identify the Staphylococcus aureus strains	10	10	0	2	12	12	0	1	

— patent US8211662B2, “Nitroreductase enzymatic substrates” (Biomerieux, priority 2007, dated 2012)
